These results are taken from US20190083459A1, “PHARMACEUTICAL COMPOSITION AND USE THEREOF” (WATERSTONE PHARMACEUTICALS(WUHAN) CO., LTD., priority 2016, published 2019).

The test system of data set [1] is NASH-modeled golden hamsters. The data set is described as follows: NASH-modeled golden hamster (method as Example 4, changed doses). Type of data set: in vivo. Particulars: obeticholic acid 5 mg/kg. On the procedure: The experimental method is referred to the Example 4, except for addition of Ezetimibe group (0.3 mg/kg), dosage change to 5 mg/kg obeticholic acid for the obeticholic acid group, as well as dosage change to 5 mg/kg obeticholic acid and 0.3 mg/kg Ezetimibe for the obeticholic acid+Ezetimibe group. Specifically, a normal group (A), a model group (B), an obeticholic acid group (C), an obeticholic acid+Ezetimibe group (D) and an Ezetimibe group (E) are included in this example.
Liver tissue samples from individual golden hamsters after treatment were subjected to paraffin-sectioning, with results shown in FIG. 3.

The next data set concerns cytochrome p450. The settings on record: 14C as a marker; cited from earlier work.
For data set [2] the following is noted: patients in an obeticholic acid treatment group; cited from earlier work.
Data set [3] has as its system NAFLD-modeled golden hamsters. The data set is described as follows: Simple high-fat diet-induced NAFLD-modeled golden hamster. The settings on record: obeticholic acid 1 mg/kg, Ezetimibe 1 mg/kg, x ± s; for ALP / ALT / AST / HDL-C / LDL-C / TC / TG: plasma. The data set is classed as in vivo. An excerpt: Obeticholic acid and Ezetimibe each are formulated with 10% Kolliphor HS 15 (BASF, Lot. No. 21466288K0) to a desired concentration.
78 specific pathogen free (SPF) male golden hamsters were provided, each with a body weight (BW) around 70 to 90 g, and commercially available from Beijing Vital River Laboratory Animal Technology Co., Ltd. Animal permit number is SCXK (Jing) 2012-0001.
10 golden hamsters were fed with a base diet as a normal group, while 68 golden hamsters were fed with a high-fat diet formulated with 0.3% cholesterol, 12.5% palm oil and 87.2% base diet upon purchased. All of them had free access to water, and kept in a same light rhythm (day time/night time: 10 h/14 h). After 3 weeks of feed, the golden hamsters were fasted for 14 hours, with free access to water, and then sampled for blood in a volume of 0.8 mL from posterior orbital venous plexus the next day. The blood samples added with sodium heparin for anticoagulation were centrifuged at 5000 r·min^−1 for 10 minutes, and 300 μL of supernatant for each sample was transferred into an assay cup (in volume of microliter grade) of the Sysmex CHEX-180 automatic biochemical analyzer for determination of levels of TC, TG, LDL-C, HDL-C and ALT, with results for screening of the hamsters.
6 out of 10 golden hamsters fed with the base diet were selected as a normal group, while 30 out of 68 golden hamsters fed with the high-fat diet were grouped into 3 experimental groups randomly (i.e. 10 hamsters for each group), respectively named model group, obeticholic acid group (1 mg/kg) and obeticholic acid (1 mg/kg)+Ezetimibe (1 mg/kg) group. From the first administration at PM 4:00 of the day after grouping, the 3 experimental groups were started to be each administered in a dosage of 10 mL·kg^−1, where the model group was administered with 10% Kolliphor in an equal volume. During administration, the normal group was still fed with the base diet, and the 3 experimental groups were fed with the high-fat diet. At 2 weeks of administration, all the golden hamsters were fasted but accessible to water overnight, and anesthetized with ethyl ether on the morning of the next day for collection of blood samples (in a volume of 0.8 mL) from the posterior orbital venous plexus. The blood samples added with sodium heparin for anticoagulation were centrifuged at 5000 r·min^−1 for 10 minutes, and 300 μL of plasma for each sample was transferred into the Sysmex CHEX-180 automatic biochemical analyzer for determination of levels of TC, TG, LDL-C, HDL-C, ALT, AST and ALP. At 4 weeks of administration, plasma of each hamster was collected for determination of levels of TC, TG LDL-C, HDL-C, ALT, AST and ALP. Afterwards, the hamsters were anesthetized with ethyl ether deeply, followed by weighting and laparotomy by an abdominal median incision for observation of size, color and texture of liver. After photographed, the liver was taken out, washed with saline and dried with filter paper, and weighted for calculation of liver index. Subsequently, left lobe of liver was cut out quickly and placed into 10% of neutral buffered formalin for immobilization, followed by preparation of paraffin sections (with HE staining) for observation of change of liver tissue pathology.
The results are represented in x±s, and comparison among groups is performed by t-test.

Setting [4] is: after 4 weeks of administration.
Where [5] appears, read: after 2 weeks of administration.

For the molecule `O=C1[C@H](CC[C@H](O)c2ccc(F)cc2)[C@@H](c2ccc(O)cc2)N1c1ccc(F)cc1` [Ezetimibe], in data set [1] (Ezetimibe 0.3 mg/kg), the ALP level entry is “reduces ALP level slightly”; the “fat content in liver cells (pathological sections of liver tissues, FIG. 3)” value was “not reducing fat content in liver significantly”; the “infiltration and aggregation of inflammatory cells (pathological sections of liver tissues, FIG. 3)” value was “ameliorating”; the “level of LDL in plasma” value is “reduces levels of triglyceride, cholesterol, LDL, liver function enzymes in plasma significantly”. In data set [1] (Ezetimibe 0.3 mg/kg), the “level of cholesterol in plasma” value is given as “reduces levels of triglyceride, cholesterol, LDL, liver function enzymes in plasma significantly”; the “level of triglyceride in plasma” value is “reduces levels of triglyceride, cholesterol, LDL, liver function enzymes in plasma significantly”; the “levels of liver function enzymes (alanine aminotransferase and aspartate aminotransferase) in plasma” value was “reduces levels of triglyceride, cholesterol, LDL, liver function enzymes in plasma significantly”. Further, in the data set with cytochrome p450, the “metabolism by a primary drug metabolic enzyme (cytochrome p450)” value is given as “barely metabolized”.

In the case of `CC[C@H]1[C@@H](O)[C@@H]2[C@H](CC[C@]3(C)[C@@H]([C@H](C)CCC(=O)O)CC[C@@H]23)[C@@]2(C)CC[C@@H](O)C[C@@H]12` [Obeticholic acid, obeticholic acid], in data set [2], the “level of high density lipoprotein compared to a placebo control” value is “lower”, the “level of low density lipoprotein compared to a placebo control” value is given as “higher” and the “level of total cholesterol compared to a placebo control” value was “higher”. Besides, the “blocking the progression of liver fibrosis (pathological sections of liver tissues)” value in data set [1] is given as “no effect”. The “infiltration and aggregation of inflammatory cells (pathological sections of liver tissues, FIG. 3)” value in data set [1] (Ezetimibe 0.3 mg/kg) was “no effect”. Further, in data set [3] (setting [4]), the “liver index (%)” value is 5.15 ± 0.33%, the ALP is on record as 196.30 ± 18.91 U · L^−1, the ALT is 165.20 ± 44.90 U · L^−1 and the AST worked out at 80.80 ± 13.13 U · L^−1. In data set [3] (setting [4]), this molecule came in with an HDL-C of 3.51 ± 0.71 mmol/L, an LDL-C of 16.04 ± 13.52 mmol/L, a TC of 22.89 ± 5.91 mmol/L and a TG of 2.07 ± 0.97 mmol/L. Moreover, in data set [3] (setting [5]), the ALP was 190.20 ± 26.30 U · L^−1, the ALT was 120.50 ± 41.78^ U · L^−1, the AST came out at 59.20 ± 14.01 U · L^−1 and the HDL-C came to 2.70 ± 0.37 mmol/L. In data set [3] (setting [5]), the LDL-C was 7.07 ± 3.22 mmol/L, the TC is listed as 14.32 ± 3.15^ mmol · L^−1 and the TG turned out to be 2.20 ± 0.52 mmol/L.
